# Experiments:
# Assay in all cases: relative viability (nuclei count vs DMSO), 5 days (fraction); higher = more cells survive
# Carboplatin + Foretinib = compound: C1CC(C1)(C(=O)O)C(=O)O.[NH2-].[NH2-].[Pt+2] [Carboplatin] + COc1cc2c(Oc3ccc(NC(=O)C4(C(=O)Nc5ccc(F)cc5)CC4)cc3F)ccnc2cc1OCCCN1CCOCC1 [Foretinib] (partner 0.25 µM)
# In short: (§1)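 Relative viability was taken as the ratio of nuclei in treated wells to nuclei in vehicle wells. Lung cancer cell lines in 1536-well plates received compounds by pin tool one day after seeding, either one drug alone or a fixed anchor-drug dose plus five library-drug doses (not always all listed) in √10 steps. Nuclei were counted on 4× images after 5 days of treatment, and values are medians of duplicate plates.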
# Carboplatin + Bortezomib = compound: C1CC(C1)(C(=O)O)C(=O)O.[NH2-].[NH2-].[Pt+2] [Carboplatin] + CC(C)C[C@H](NC(=O)[C@H](Cc1ccccc1)NC(=O)c1cnccn1)B(O)O [Bortezomib] (partner 0.002 µM)
# In short: as §1
# GSK126 + Tozasertib = compound: CC[C@H](C)N1C=C(C2=C(C=C(C=C21)C3=CN=C(C=C3)N4CCNCC4)C(=O)NCC5=C(C=C(NC5=O)C)C)C [GSK126] + Cc1cc(Nc2cc(N3CCN(C)CC3)nc(Sc3ccc(NC(=O)C4CC4)cc3)n2)n[nH]1 [Tozasertib] (partner 0.1 µM)
# In short: as §1
# MLN4924 + Vorinostat = compound: NS(=O)(=O)OC[C@@H]1C[C@@H](n2ccc3c(N[C@H]4CCc5ccccc54)ncnc32)C[C@@H]1O [MLN4924] + O=C(CCCCCCC(=O)Nc1ccccc1)NO [Vorinostat] (partner 1 µM)
# In short: as §1
Cell Line,relative viability (Carboplatin + Foretinib; first compound 0.08 µM),relative viability (Carboplatin + Foretinib; first compound 0.253 µM),relative viability (Carboplatin + Foretinib; first compound 0.8 µM),relative viability (Carboplatin + Foretinib; first compound 2.53 µM),relative viability (Carboplatin + Foretinib; first compound 8 µM),relative viability (Carboplatin + Bortezomib; first compound 0.08 µM),relative viability (Carboplatin + Bortezomib; first compound 0.253 µM),relative viability (Carboplatin + Bortezomib; first compound 0.8 µM),relative viability (Carboplatin + Bortezomib; first compound 2.53 µM),relative viability (Carboplatin + Bortezomib; first compound 8 µM),relative viability (GSK126 + Tozasertib; first compound 0.08 µM),relative viability (GSK126 + Tozasertib; first compound 0.253 µM),relative viability (GSK126 + Tozasertib; first compound 0.8 µM),relative viability (GSK126 + Tozasertib; first compound 2.53 µM),relative viability (GSK126 + Tozasertib; first compound 8 µM),relative viability (MLN4924 + Vorinostat; first compound 0.04 µM),relative viability (MLN4924 + Vorinostat; first compound 0.1265 µM),relative viability (MLN4924 + Vorinostat; first compound 0.4 µM),relative viability (MLN4924 + Vorinostat; first compound 1.265 µM),relative viability (MLN4924 + Vorinostat; first compound 4 µM)
201T,1.28,1.05,0.917,0.867,0.618,1.18,1.11,1.13,1.14,1.06,0.893,1.05,0.944,0.944,0.836,0.991,0.898,0.406,0.277,0.17
A549,1.03,0.991,0.888,0.768,0.741,,,,,,,,,,,,,,,
A-427,1.16,1.15,1.03,0.992,1.16,0.984,1.11,0.904,0.905,1.01,0.227,0.245,0.189,0.226,0.162,0.546,0.403,0.309,0.231,0.237
ABC-1,1.28,1.09,1.1,0.769,0.398,0.291,0.442,0.354,0.355,0.335,0.159,0.135,0.217,0.167,0.17,0.946,1.15,0.572,0.279,0.363
BEN,0.778,0.654,0.69,0.658,0.589,0.837,0.889,0.988,0.898,0.782,0.516,0.388,0.669,,0.462,0.434,0.463,0.431,0.268,0.238
CAL-12T,1.1,1.06,1.2,1.02,1.07,1.28,0.826,0.972,1.07,0.911,0.324,0.358,0.301,0.189,0.184,0.792,0.921,0.409,0.259,0.144
COR-L23,0.948,0.94,0.91,0.729,0.512,0.887,0.987,0.918,0.707,0.355,0.206,0.228,0.208,0.168,0.175,0.414,0.34,0.195,0.0783,0.0885
COR-L 105,0.986,0.993,0.902,0.897,0.578,0.89,0.745,0.832,0.794,0.424,0.355,0.31,0.402,0.312,0.264,0.71,0.709,0.353,0.232,0.403
Calu-6,0.911,0.919,0.793,0.789,0.415,0.927,0.974,0.925,0.823,0.496,,,,,,,,,,
ChaGo-K-1,0.872,0.993,0.835,0.745,0.579,1.08,0.837,0.916,0.786,0.406,0.237,0.238,0.216,0.233,0.201,0.681,0.593,0.299,0.167,0.174
EBC-1,0.0979,0.108,0.108,0.0821,0.101,0.528,0.507,0.551,0.518,0.438,,,,,,,,,,
EKVX,0.903,0.893,,0.749,0.747,1.06,1.13,1.01,1.06,0.976,0.411,0.443,0.4,0.355,0.326,0.632,0.276,0.41,0.201,0.217
EMC-BAC-2,1.07,1.06,1.02,1.03,0.898,1.14,1.02,1.13,1.05,0.957,0.306,0.266,0.154,0.238,0.249,0.39,0.392,0.236,0.179,0.279
EPLC-272H,0.785,0.852,0.727,0.611,0.602,0.86,1.1,0.972,1.01,0.877,0.316,0.306,0.211,0.306,0.189,0.195,0.184,0.098,0.0963,0.144
H3255,0.905,0.872,0.875,0.898,0.836,0.832,0.762,0.874,0.865,0.526,0.704,0.65,0.74,0.614,0.466,0.668,0.642,0.334,0.239,0.304
HARA,1.05,1.03,0.83,0.798,0.744,1.06,1.13,1.09,1.01,0.939,0.131,0.0947,0.0975,0.0847,0.106,0.48,0.144,0.174,0.0809,0.0682
HCC-15,1.05,1.04,0.969,0.845,0.715,1.1,1.05,0.999,0.914,0.795,0.374,0.329,0.43,0.204,0.158,0.643,0.444,0.289,0.112,0.106
HCC-44,,,,,,0.968,0.882,0.833,0.864,0.785,0.942,0.877,0.88,0.983,0.897,1.04,0.731,0.726,0.415,0.376
